From ChEMBL document CHEMBL1201862, “PubChem BioAssay data set” (2004)
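In this assay, cells in 96-well plates receive the compound at five concentrations for 48 hours. Endpoints are linearly interpolated between the surrounding concentrations. Here, GI50 denotes the concentration required for 50% inhibition of growth.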 The source made the active and inactive calls. Cut-off read from the data, not from the text of the source: active = GI50 up to about 1.1 µM and inactive = higher.

Assays:
Experiment in all cases: DTP human tumour cell line panel, 48 h
NCI-H226 = tested on: NCI-H226
A549 = tested on: A549
T47D = tested on: T47D
MDA-MB-231 = tested on: MDA-MB-231
OVCAR-8 = tested on: OVCAR-8
786-0 = tested on: 786-0
PC-3 = tested on: PC-3
SK-MEL-5 = tested on: SK-MEL-5
ACHN = tested on: ACHN
OVCAR-5 = tested on: OVCAR-5
EKVX = tested on: EKVX
KM12 = tested on: KM12
NCI-H23 = tested on: NCI-H23
NCI-H460 = tested on: NCI-H460
UACC-62 = tested on: UACC-62
COLO 205 = tested on: COLO 205
SK-MEL-2 = tested on: SK-MEL-2
RXF 393 = tested on: RXF 393
CAKI-1 = tested on: CAKI-1

Measured: GI50

COc1ccc(C[C@H]2COC(=O)[C@@H]2Cc2ccccc2)cc1OC
inactive: NCI-H226 > 100 µM | A549 > 100 µM | T47D > 100 µM | MDA-MB-231 > 100 µM | OVCAR-8 > 100 µM | 786-0 > 100 µM | PC-3 > 100 µM | SK-MEL-5 > 100 µM | ACHN > 100 µM | OVCAR-5 > 100 µM | EKVX > 100 µM | KM12 > 100 µM | NCI-H23 > 100 µM | NCI-H460 > 100 µM

CN1CN(c2ccccc2)C2(CCN(C3Nc4ccccc4O3)CC2)C1=O (configuration not stated)
inactive: NCI-H226 18.6 µM | A549 27.3 µM | T47D 22.2 µM | UACC-62 16.1 µM | MDA-MB-231 20.1 µM | OVCAR-8 26.2 µM | COLO 205 16.3 µM | 786-0 20.6 µM | SK-MEL-2 13.6 µM | PC-3 16.7 µM | SK-MEL-5 17.7 µM | ACHN 22 µM | OVCAR-5 17.6 µM | RXF 393 14.5 µM | CAKI-1 25.5 µM | KM12 19.6 µM | NCI-H23 21.2 µM | NCI-H460 17.7 µM

COc1ccc(C(=O)/C=C2\c3ccccc3C(=O)N2C)cc1
inactive: A549 58.6 µM | T47D 27 µM | UACC-62 41.1 µM | MDA-MB-231 > 100 µM | OVCAR-8 64.4 µM | COLO 205 55 µM | 786-0 92.3 µM | SK-MEL-2 > 100 µM | PC-3 89.1 µM | SK-MEL-5 63.4 µM | ACHN 89.5 µM | OVCAR-5 > 100 µM | RXF 393 22.9 µM | EKVX 26.8 µM | CAKI-1 36.4 µM | KM12 62.8 µM | NCI-H23 55.3 µM | NCI-H460 36.1 µM

CSc1ncc2c(n1)-c1ccccc1OC2N1CCCCC1 (configuration not stated)
inactive: NCI-H226 32 µM | A549 39.4 µM | T47D 27.3 µM | UACC-62 22.4 µM | MDA-MB-231 23 µM | OVCAR-8 63.8 µM | COLO 205 44.8 µM | 786-0 29.4 µM | SK-MEL-2 25.9 µM | PC-3 48.2 µM | SK-MEL-5 20.3 µM | ACHN 37.1 µM | OVCAR-5 42 µM | RXF 393 32.1 µM | EKVX 35.2 µM | CAKI-1 21.7 µM | KM12 38.5 µM | NCI-H23 41.7 µM | NCI-H460 30.4 µM

COc1cc(C2C(Cl)C(=O)N2c2c(C)n(C)n(-c3ccccc3)c2=O)ccc1O (configuration not stated)
inactive: NCI-H226 22.3 µM | A549 26.2 µM | T47D 44.3 µM | UACC-62 16 µM | MDA-MB-231 22.1 µM | OVCAR-8 19.4 µM | COLO 205 16.3 µM | 786-0 11.9 µM | SK-MEL-2 20.3 µM | PC-3 28.8 µM | SK-MEL-5 23.2 µM | ACHN 20.1 µM | OVCAR-5 21.5 µM | RXF 393 18.1 µM | EKVX 35 µM | CAKI-1 33.6 µM | KM12 17.7 µM | NCI-H23 14.7 µM | NCI-H460 23.6 µM

NN/C(=N\S(=O)(=O)c1ccc(-c2ccccn2)s1)Nc1ccc(Cl)cc1
inactive: NCI-H226 75.2 µM | A549 59 µM | T47D 38.1 µM | UACC-62 > 100 µM | MDA-MB-231 > 100 µM | OVCAR-8 83.6 µM | COLO 205 > 100 µM | 786-0 29.2 µM | SK-MEL-2 > 100 µM | PC-3 > 100 µM | SK-MEL-5 > 100 µM | ACHN > 100 µM | OVCAR-5 > 100 µM | RXF 393 30.5 µM | EKVX 53.6 µM | CAKI-1 58.6 µM | KM12 > 100 µM | NCI-H23 > 100 µM | NCI-H460 > 100 µM
